Drawing on publication PMC7014678 (International Journal of Molecular Sciences, 2020), this text covers Ki for ten molecules.

The target of assay [1] is T1, VchCA-β (Vibrio cholerae, UniProt A0A086SLX8).
T1 construct: gene can
The assay is described as follows: biochemical.

The target in another assay is T2, StCA2-β.
T2 construct: recombinant, obtained in-house; construct not described
The assay is described as follows: stopped-flow CO2 hydration assay. Format: biochemical, Salmonella enterica subsp. enterica serovar Typhimurium. To be noted: CO2 1.7-17 mM; pH 8.3 TRIS; 20 mM Na2SO4; 15 min preincubation, room temperature.

For assay [2], the target named is T3, VchCA-α (Vibrio cholerae, UniProt Q9KMP6).
T3 construct: gene VC_A0274
Put plainly: biochemical.

Assay [3] addresses T4, BpsCA-β (Burkholderia pseudomallei, UniProt Q63Y17).
T4 construct: gene BPSL0372
The assay is described as follows: biochemical.

Assay [4] has as its target T5, Rv3273-β (Mycobacterium tuberculosis, UniProt P96878). The assay is described as follows: biochemical.
In another assay the target is T6, BpsCA-γ.
T6 construct: gene BpsCA-gamma
Format: biochemical, Burkholderia pseudomallei.

The target of assay [5] is T5, Rv3273-β. The assay is described as follows: biochemical. This is another data set of the same source.
Assay [6] has as its target T3, VchCA-α. The assay is described as follows: biochemical. The source holds these as a separate data set.
The target of assay [7] is T4, BpsCA-β. Put plainly: biochemical. The source holds these as a separate data set.
Assay [8] addresses T1, VchCA-β. Put plainly: biochemical. The source holds these as a separate data set.

pKi: −log10 of the molar value. Read-outs that look alike come from different tables or passages of the source.

T4 sequence (Q63Y17 1-256): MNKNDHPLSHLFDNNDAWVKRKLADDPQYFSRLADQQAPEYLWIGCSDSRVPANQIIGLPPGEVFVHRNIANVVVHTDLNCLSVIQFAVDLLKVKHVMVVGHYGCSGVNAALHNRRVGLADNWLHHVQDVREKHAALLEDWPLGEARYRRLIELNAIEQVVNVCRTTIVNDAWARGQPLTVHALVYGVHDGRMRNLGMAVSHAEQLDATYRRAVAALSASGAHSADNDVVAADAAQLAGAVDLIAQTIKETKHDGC
T5 sequence (P96878 540-764 limits assumed): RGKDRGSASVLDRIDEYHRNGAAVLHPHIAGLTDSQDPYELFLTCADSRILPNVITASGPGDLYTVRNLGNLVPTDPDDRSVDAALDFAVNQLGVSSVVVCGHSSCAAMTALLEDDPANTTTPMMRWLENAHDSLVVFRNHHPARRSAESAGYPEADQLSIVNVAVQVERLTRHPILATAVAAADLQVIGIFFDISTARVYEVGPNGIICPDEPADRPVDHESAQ
T1 sequence (A0A086SLX8 1-222): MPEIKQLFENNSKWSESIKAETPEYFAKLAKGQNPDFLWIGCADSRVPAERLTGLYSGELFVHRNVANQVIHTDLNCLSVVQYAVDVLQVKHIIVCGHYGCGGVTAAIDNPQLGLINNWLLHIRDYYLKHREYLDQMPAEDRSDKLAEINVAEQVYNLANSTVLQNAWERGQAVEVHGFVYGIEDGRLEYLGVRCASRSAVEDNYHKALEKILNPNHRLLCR
T3 sequence (Q9KMP6 21-239 limits assumed): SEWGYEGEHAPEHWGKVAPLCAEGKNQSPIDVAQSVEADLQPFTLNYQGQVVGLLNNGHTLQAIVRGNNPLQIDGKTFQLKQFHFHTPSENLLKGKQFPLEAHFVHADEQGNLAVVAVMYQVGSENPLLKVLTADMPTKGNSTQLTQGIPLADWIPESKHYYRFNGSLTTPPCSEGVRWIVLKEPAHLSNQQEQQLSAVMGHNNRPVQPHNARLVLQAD

With `COc1ccc([Se]CC(=O)Nc2ccc([Se]Cc3ccc(S(N)(=O)=O)cc3)cc2)cc1` [9d], the pKi on VchCA-β [1] was 7.08; on StCA2-β, 8.12; at VchCA-α [2], 8.05; on BpsCA-β [3], < 5.00; on Rv3273-β [4], < 5.00.

In the case of `NS(=O)(=O)c1ccc(NC(=O)C[Se]c2ccccc2)cc1` [7a], the pKi is 7.02 on VchCA-β [1]; 6.52 at BpsCA-γ (CO2 1.7-17 mM, buffer pH for γ-CA not stated, 20 mM Na2SO4, 15 min preincubation, room temperature); 6.69 on Rv3273-β [5]; 8.66 on VchCA-α [6]; 5.39 on BpsCA-β [7].

In the case of `Cc1ccc([Se]CC(=O)Nc2ccc(S(N)(=O)=O)cc2)cc1` [7b], the pKi is 6.12 on VchCA-β [8], 8.11 on VchCA-α [2], < 5.00 at BpsCA-β [3] and 6.55 on Rv3273-β [4].

Take `Cc1ccccc1[Se]CC(=O)Nc1ccc(S(N)(=O)=O)cc1` [7c]: the pKi is 5.21 on VchCA-β [8] (read-out: VchCA-β, inhibitor); 7.38 at VchCA-α [2] (read-out: VchCA-α, inhibitor); < 5.00 at BpsCA-β [3] (read-out: BpsCA-β, inhibitor); < 5.00 on Rv3273-β [4] (read-out: Rv3273-β, inhibitor).

As to `CC(O)CSCC(=O)Nc1ccc(S(N)(=O)=O)cc1` (stereo not drawn) [3e], the pKi on BpsCA-γ was 6.49; at Rv3273-β [5] it was 6.67; on VchCA-β [8], 5.18; at VchCA-α [2], 7.35; on BpsCA-β [3], < 5.00.

As for `COc1ccc([Se]CC(=O)NCCc2ccc(S(N)(=O)=O)cc2)cc1` [8c], the pKi at VchCA-β [1] is 7.07; at VchCA-α [6], 8.49; at BpsCA-β [3], < 5.00; at Rv3273-β [4], < 5.00.

Regarding `Cc1ccc(S(=O)(=O)N[C@H](C[Se]CC(=O)NCCc2ccc(S(N)(=O)=O)cc2)C(C)C)cc1` [8d], the pKi at VchCA-β [8] is 6.08; on VchCA-α [2], 7.21; at BpsCA-β [3], < 5.00; on Rv3273-β [4], < 5.00.

With `NS(=O)(=O)c1ccc(C[Se]c2ccc(NC(=O)CSc3ccc(Br)cc3)cc2)cc1` [5b], the pKi on VchCA-β [8] is 6.24; on StCA2-β it was 8.09; at VchCA-α [2], 7.34; at BpsCA-β [3], < 5.00; at Rv3273-β [4], < 5.00.

On to `C=C(C)[C@H]1CCC(C)(O)C([Se]CC(=O)NCCc2ccc(S(N)(=O)=O)cc2)C1` (stereo partly drawn) [8e], for which the pKi at VchCA-β [8] is 6.51; on VchCA-α [6] it was 8.21; on StCA2-β, 8.05; on BpsCA-β [3] it was < 5.00; on Rv3273-β [4] it was < 5.00.

On to `NS(=O)(=O)c1ccc(CCNC(=O)C[Se]c2ccccc2)cc1` [8a], for which the pKi on VchCA-β [8] was 5.18; on VchCA-α [2], 7.35; on BpsCA-β [3], < 5.00; on Rv3273-β [4], 5.82.
